Key:
[1] = tested on: spinal cord of rabbits with Ischemia/Reperfusion (I/R); experiment: Histological score of the spinal cord after ischemia/reperfusion; assay type: in vivo, New Zealand rabbits; settings: oral for 10 days: HMWS 200, AcGS 132, AlcG 40, AldG 28, AcGL 200, ASA 60 (table) mg/kg
Description: Furthermore, the effect of HMWS was compared with that of pure extract of free fatty acids (AcGL) administered at equal doses.
The substances HMWS, AcGS, AlcG, AldG, AcGL and aspirin were prepared as suspensions in an acacia/water vehicle (1%). Once the quarantine was completed, the rabbits were distributed into 8 groups: a negative control that only received vehicle and was not induced ischemia and 7 groups with spinal cord ischemia: a positive control treated only with the vehicle, and 6 groups were treated with HMWS (200 mg/kg), AcGS (132 mg/kg), AlcG (40 mg/kg), AldG (28 mg/kg), AcGL (200 mg/kg), and aspirin (2 mg/kg) as reference substance. All treatments were administered orally via intragastric tubing (1 mL/2 kg body weight) for 10 days.
For the induction of ischemia in the spinal cord, the rabbits were anesthetized with thiopental (20 mg/kg i.v.). The abdomen was depilated, an antiseptic solution was applied, an incision was made in the ventral midline and the retroperitoneal space was penetrated. The aorta and left renal artery were dissected and exposed. The aorta was ligated by placing a clip immediately below the left renal artery for 20 minutes, after which it was removed and the reperfusion period began. […] At 4 and 24 hours of reperfusion, the neurological deficit of the animals was blindly evaluated by 2 independent observers (according to Zivin et al., 1982). […]

[2] = tested on: plasma sulfhydryl (SH) groups; experiment: Plasma protein oxidation (sulfhydryl groups) after cerebral ischemia/reperfusion; assay type: in vivo, Mongolian gerbils; settings: gerbils, plasma after I/R; oral HMWS 200, AcGS 132, AlcG 40, AldG 28, AcGL 200, ASA 60 mg/kg
Description: For the evaluation of the neuroprotective effect of the mixture of high molecular weight substances, the object of the present invention, an experimental model of global cerebral ischemia by occlusion and reperfusion of the carotid arteries was used. The composition of High Molecular Weight Substances (HMWS) obtained in example 1 was subjected to a preclinical test with animals, in which its pharmacological effect was compared with the effects of pure extracts of Fatty Acids in the form of Salts (AcGS), fatty alcohols (AlcG) and high molecular weight aldehydes (AldG), which were administered in the dose equivalent to the proportion in which each one is present in 200 mg/kg of the HMWS Active Ingredient. Furthermore, the effect of HMWS was compared with the effect of pure free fatty acid (AcGL) extract administered at equal doses. […] To determine lipid peroxidation, the formation of substances reactive to thiobarbituric acid (SRATB) was quantified (according to Ohkawa et al., 1979) in plasma, and was expressed as nmol malondialdehyde (MDA)/mg of protein. To determine protein oxidation, sulfhydryl (SH) groups were determined (technique described by Miao-Lin Hu, 1994). […] The absorbance of the supernatant was read at 412 nm. […] The protein concentration was determined by the modified Lowry method ([…], 1987).

[3] = tested on: plasma concentrations of MDA; experiment: Plasma lipid peroxidation (SRATB, MDA) after cerebral ischemia/reperfusion; assay type: in vivo, Mongolian gerbils; settings: gerbils, plasma after I/R; oral HMWS 200, AcGS 132, AlcG 40, AldG 28, AcGL 200, ASA 60 mg/kg
Description: For the evaluation of the neuroprotective effect of the mixture of high molecular weight substances, the object of the present invention, an experimental model of global cerebral ischemia by occlusion and reperfusion of the carotid arteries was used. The composition of High Molecular Weight Substances (HMWS) obtained in example 1 was subjected to a preclinical test with animals, in which its pharmacological effect was compared with the effects of pure extracts of Fatty Acids in the form of Salts (AcGS), fatty alcohols (AlcG) and high molecular weight aldehydes (AldG), which were administered in the dose equivalent to the proportion in which each one is present in 200 mg/kg of the HMWS Active Ingredient. Furthermore, the effect of HMWS was compared with the effect of pure free fatty acid (AcGL) extract administered at equal doses. Once the quarantine was over, the gerbils were distributed into 8 groups: a negative control that only received vehicle and cerebral ischemia (CI) was not induced and 7 groups with induced CI. […] All treatments were administered orally through intragastric intubation (0.5 mL/70 g body weight) 1 hour prior to induction of ischemia. […] To determine lipid peroxidation, the formation of substances reactive to thiobarbituric acid (SRATB) was quantified (according to Ohkawa et al., 1979) in plasma, and was expressed as nmol malondialdehyde (MDA)/mg of protein.

CC(=O)Oc1ccccc1C(=O)O [ASA, aspirin]
Histologic Score (spinal cord, 3 = no injuries, 0 = severe) ([1]; 24 hours after reperfusion, positive control 0.00 ± 0.05): 0.9 ± 0.15
Inhibition (%) of histological damage in the spinal cord ([1]; I/R): 30%
Inhibition (%) of SH groups increase [2]: 12%
Inhibition (%) of MDA increase [3]: 0.0%

From US12703836B2, “Mixture of compounds with high molecular weights, obtained from sugar cane wax (Saccharum officinarum L.)” (CENTRO NACIONAL DE INVESTIGACIONES CIENTÍFICAS, priority 2021, dated 2026)
